The structures appear in SMILES notation. Active and inactive are the calls of the source. No cut-off for these calls is given here.

What all share (format): functional, organism-based
What all share (set-up): dose 50 mg/kg

In assay [1] the test system is Rattus norvegicus. Kind of assay: Tested for relative acute toxicity at the dose of 50 mg/kg after intraperitoneal administration in spontaneously hypertensive rats; inactive.
Assay [2] concerns Rattus norvegicus. Kind of assay: Tested for antihypertensive activity at the dose of 50 mg/kg in spontaneously hypertensive rats; inactive.
In assay [3] the test system is Rattus norvegicus. Kind of assay: Tested for antihypertensive activity at the dose of 50 mg/kg in spontaneously hypertensive rats; active.
In assay [4] the test system is Rattus norvegicus. Kind of assay: Tested for relative acute toxicity at the dose of 50 mg/kg after intraperitoneal administration in spontaneously hypertensive rats; active.
In assay [5] the test system is Rattus norvegicus. Kind of assay: Tested for reflex tachycardia at the dose of 50 mg/kg when administered intraperitoneally in spontaneously hypertensive rats; active.

As to `COC(=O)C1=C(C)N2C[C@H](C)O[C@@]2(C)[C@@H](C(=O)OC)[C@@H]1c1cccc(Cl)c1`, the outcome in the assay with Rattus norvegicus [1] was inactive. `CCOC(=O)[C@@H]1[C@@H](c2cccc([N+](=O)[O-])c2)C(C(=O)OC)=C(C)N2C[C@@H](C)O[C@]12C`: the outcome in the assay with Rattus norvegicus [2] was inactive.

As for `CCOC(=O)[C@H]1[C@H](c2cccc([N+](=O)[O-])c2)C(C(=O)OC)=C(C)N2CCO[C@@]12C`, the result with Rattus norvegicus [3] was Active. For `CCOC(=O)[C@H]1[C@H](c2cccc([N+](=O)[O-])c2)C(C(=O)OC)=C(C)N2C[C@H](C)O[C@@]12C`, the outcome with Rattus norvegicus [3] was Active. Consider `COC(=O)C1=C(C)N2C[C@@H](C)O[C@]2(C)[C@H](C(=O)OC)[C@H]1c1cccc(Cl)c1`, for which, in the assay with Rattus norvegicus [4], the outcome was Active. With `COC(=O)C1=C(C)NC(C)=C(C(=O)OC)C1c1ccccc1[N+](=O)[O-]`, the result in the assay with Rattus norvegicus [5] was Active.

(Values after ChEMBL document CHEMBL1133389, “Antihypertensive activity of substituted 2,3,8,8a-tetrahydro-7H-oxazolo[3,2-a]pyridinedicarboxylate enantiomers” (Bioorg Med Chem Lett, 2000).)
